Data reported in US20260355189A1, “SMALL MOLECULE INHIBITORS OF NEUTROPHIL EXOCYTOSIS AND INFLAMMATION” (THE SCRIPPS RESEARCH INSTITUTE, priority 2022, published 2026).

How the values were obtained:
[1] = tested on: human neutrophils (specific granule marker CD66b); experiment: Flow cytometry of specific granule exocytosis (CD66b) in human neutrophils; format: cell-based; details: 1 hour, GM-CSF + fMLP
From the text: (§1) Human neutrophils were isolated from normal donor's blood by Ficoll density centrifugation, as described previously (23). Murine bone marrow-derived neutrophils were isolated using a Percoll gradient fractionation system as described (24). A three-layer Percoll gradient was used (52%, 64%, and 72%), and neutrophils were isolated from the 64-72% interface, washed, and used in the assays.
(§2) Method: The up-regulation of granule membrane-associated neutrophil markers at the plasma membrane was analyzed by flow cytometry. In these studies, flow cytometry analysis was performed by resuspension of 1×10^6 human neutrophils in phenol red-free RPMI 1640 medium, treated with a 10 μM solution of Inhibitors C1, C2, C4, C5, and C6 and Nexinhib 20 (C20) or DMSO control for 1 hour, and stimulated with physiological agonists GM-CSF (10 ng/ml) for 30 min followed by the addition of fMLP (1 μM) to induce degranulation or left untreated at 37 °C (non-stimulated, NS). The reactions were stopped by transferring the samples to ice and immediately spinning down the cells to initiate blocking and staining. To analyze the plasma membrane expression of plasma membrane markers, the cells were blocked in ice-cold PBS containing 1% BSA and stained with phycoerythrin (PE)-, FITC-, or Alexa647-conjugated anti-human CD63, CD66b, MMP9, and CD11b antibodies that detect extracellular epitopes of these markers. The cells were then washed and fixed in 1% paraformaldehyde in PBS. Samples were analyzed using a NovoCyte flow cytometer, and the data were processed using FlowJo software.

[2] = tested on: mouse neutrophils; experiment: Isoluminol-dependent chemiluminescence assay of MPO secretion in purified mouse neutrophils; format: cell-based; details: 10 μM inhibitor, PMA stimulated, FIG. 3B
From the text: FIGS. 3A-C illustrate the effect of Inhibitors C1, C2, C4, C5, and C6 and comparator Nexinhib 20 (shown as “C20”) on MPO secretion of mouse neutrophils. FIG. 3A is a schematic representation of a cell-based secondary screening assay used to analyze the potency the potency of Rab27a-JFC1 inhibitors for their ability to decrease exocytosis of intact human neutrophil. This cell-based assay measures the secretion of myeloperoxidase (MPO) by human neutrophils using cell-impermeant isoluminol-dependent chemiluminescence in the absence of exogenous peroxidases.
as §1
Extracellular MPO-dependent reactive oxygen species (ROS) production was measured using the chemiluminescence reactions mediated by isoluminol (25). To this end, 3×10^5 neutrophils were resuspended in serum-free RPMI 1640 medium in the presence of cell-impermeant isoluminol, and reactions were carried out in the absence of exogenous peroxidase. Neutrophils were incubated in the presence of compounds or DMSO (0.5%) pin-tooled into 384-well plates in a […]. Control experiments were run in parallel in the presence of [COMPOUND LEFT OUT] (0.5 mM) to inhibit endogenous myeloperoxidase. After addition of stimuli (phorbol 12-myristate 13-acetate, “PMA”) or vehicle using liquid handling devices (BioRaptor FRD, Beckman Coulter), MPO-dependent chemiluminescence was continuously monitored for 30 min at 37 °C using a 2104 EnVision multilabel plate reader. For secretion assays, 0.5×10^6 neutrophils were incubated in RPMI 1640 medium in polystyrene 96-well plates in the presence of Inhibitors or dimethyl sulfoxide (DMSO) control for 1 hour and stimulated for the indicated times at 37 °C with PMA (0.1 μg/ml), GM-CSF (10 ng/ml), and fMLP (1 μM) or DMSO control. The cells were spun down, and supernatants were transferred to clean plates using plate filters to avoid contamination from cellular secretory proteins. MPO was measured by ELISA (R&D Systems).
Results: FIG. 3B is a graph showing the effect of Inhibitors C1, C2, C4, C5, and C6 on secreted MPO-dependent reaction using the isoluminol-dependent chemiluminescence assay in highly purified mouse neutrophils. On the graph of FIG. 3B, the pre-fix “NS” means “no stimuli” where the cells were treated with 10 μM C1, C2, C4, C5, C6, and C20 alone without any exocytosis stimuli. The pre-fix “PMA” means the cells were stimulated with PMA to secrete MPO and were treated with 10 μM of the designated Inhibitor. […] Mean % inhibition: C1, 76.74; C2, 59.85; C4, 70.9; C6, 62.4; C20, 99.22.

[3] = tested on: wild-type neutrophils; experiment: Secretion by wild-type neutrophils; format: cell-based
[4] = tested on: neutrophils that carry the NLRP3 A350V mutation; experiment: Secretion by bone-marrow-derived neutrophils from Nlrp3 A350V (CAPS) mice; format: cell-based, mouse; details: 10 μM, 1 hour, LPS and fMLF
From the text: FIG. 8A-C. […] A, gelatinase (MMP9) granules; B, azurophilic granules (MPO, myeloperoxidase); C, CD63 (an endolysosomal marker). […] Subsequently, neutrophils were either stimulated with lipopolisacharide (LPS) and the chemotatctic peptide fMLF or left untreated. C20 (Nexinhib20 is used as control). Mean±SEM, n=3. In this and subsequent figures, p<0.05; **, p<0.01; ***, p<0.001; ****, p<0.0001, ANOVA.
These compounds are now tested using neutrophils from a mouse model of Cryopyrin-Associated Periodic Syndrome (CAPS), a systemic inflammatory disease in humans, caused by gain-of-function mutations of the NOD-like receptor family member, cryopirin, also known as NLRP3 (J Cin Immunol 39, 277-286, doi:10.1007/s10875-019-00638-z (2019)). Heterozygous NLRP3 mutations lead to hyper-responsive NLRP3 inflammasome function characterized by increased caspase-1 (Casp1) activation and […], and is observed in patients and in animal models with NLRP3-gain-of-function mutations. […] Subsequently, neutrophils were either stimulated with LPS and the chemotatctic peptide fMLF or left untreated.

[5] = tested on: human neutrophils (azurophilic granule marker CD63); experiment: Flow cytometry of azurophilic granule mobilization (CD63) in human neutrophils; format: cell-based; details: Homo sapiens, Neutrophil, 1 hour, GM-CSF + fMLP, N=15 donors, FIG. 4, read-out: Mean % inhibition of CD63 up-regulation
From the text: as §1, §2

In the case of `CCN(CC)CCNC(=O)/C(=C/c1cccc([N+](=O)[O-])c1)n1cncn1` [154 (C6)], the “Inhibition of CD66b up-regulation” value ([1]; 10 μM, relative to DMSO, FIG. 5) is reported as “reduced the up-regulation of CD66b”, the inhibition at 10 µM ([1]; Homo sapiens, Neutrophil, N=12 donors, FIG. 5, read-out: % inhibition of CD66b up-regulation) is reported as 42.3% and the “Inhibition of exocytosis vs DMSO control” value [2] is reported as “significant inhibition of exocytosis”. For the same compound, the inhibition at 10 µM ([2]; Mus musculus, Neutrophil) was 62.4%, the “Inhibitory effect on wild-type neutrophils” value [3] was “selective inhibitory effect on wild-type neutrophils” and the “Mobilization of azurophilic granules (MPO)” value ([4]; FIG. 8) was “inhibit the mobilization”. The “Mobilization of gelatinase granules (MMP9)” value ([4]; FIG. 8) was “inhibit the mobilization of gelatinase granules (MMP9)”, the “Neutrophil secretion (hyperactivation of secretion)” value ([4]; Nlrp3 A350V and wild type, FIG. 8A-C) was “inhibit the hyperactivation of secretion” and the “Mobilization of CD63” value ([4]; murine neutrophils, FIG. 8) was “significantly inhibited the mobilization of CD63”. It also gave an inhibition at 10 µM [5] of 58.1%.
